Results taken from PubChem BioAssay (NCI).
Several values for one entry are separate records, joined by “and”; a condition that tells them apart may be missing. Equal entries are not always repeated.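 The compound was tested at five concentrations on cells cultured in 96-well plates, with a 48-hour exposure period. At the GI50, growth is halved. TGI: total growth inhibition.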

Tests used:
Experiment in all cases: inhibition of tumour cell growth, NCI panel, 48 h
[1] = system: KM12 colon
[2] = system: COLO 205 colon
[3] = system: SF-295 CNS
[4] = system: A549 NSCLC
[5] = system: EKVX NSCLC
[6] = system: HCT-116 colon
[7] = system: SNB-19 CNS
[8] = system: IGROV1 ovarian
[9] = system: SK-OV-3 ovarian
[10] = system: NCI-H522 lung

Compound | TGI [1] [µM] | TGI [2] [µM] | TGI [3] [µM] | TGI [4] | TGI [5] [µM] | TGI [6] [µM] | TGI [7] | TGI [8] | TGI [9] | TGI [10] | GI50 [1] | GI50 [2] [µM] | GI50 [3] [µM] | GI50 [4] | GI50 [5] [µM] | GI50 [6] | GI50 [7] | GI50 [8] | GI50 [9] [µM] | GI50 [10]
FC(F)(F)c1nc(-c2ccccc2)oc1Sc1oc(-c2ccccc2)nc1C(F)(F)F | > 100 | > 100 | > 100 | > 100 µM | > 100 | > 100 | > 100 µM | > 100 µM | > 100 µM | > 100 µM |  |  |  |  |  |  |  |  |  | 
Cc1c(CC/C(=N\Nc2ccc([N+](=O)[O-])cc2[N+](=O)[O-])c2ccccc2)c2ccccc2n1C | > 100 | > 100 | > 100 | > 100 µM | > 100 | > 100 | > 100 µM | > 100 µM | > 100 µM | > 100 µM |  |  |  |  |  |  |  |  |  | 
Nc1nc(-c2ccccc2)cc(-c2ccc(Cl)cc2)c1-c1nc2ccccc2o1 | 20.7 | 37.3 | 37.7 | 31.4 µM | 27.7 | 20.2 | 37.9 µM | 28.5 µM | 30.7 µM | 30.6 µM | 5.65 µM | 21.4 | 20.5 | 14.9 µM | 14 | 7.41 µM | 17.7 µM | 12.9 µM | 15.9 | 13.5 µM
COc1ccc(C2CC(=O)c3c(O)c(OC)c(OC)c(OC)c3O2)cc1O (configuration not stated) | > 100 | 32.5 | > 100 | > 100 µM | > 100 | > 100 | > 100 µM | > 100 µM | > 100 µM | 0.775 µM | 0.0585 µM | 6.63 | 0.374 | 0.817 µM | 0.53 | 0.103 µM | 0.0833 µM | 0.976 µM | 0.371 | 0.0386 µM
Cc1ccccc1NC(=O)c1ccc([N+](=O)[O-])cc1 | > 100 | > 100 | > 100 | > 100 µM | > 100 | > 100 | > 100 µM | > 100 µM | > 100 µM | > 100 µM |  |  |  |  |  |  |  |  |  | 
COc1ccc(C2c3c(-c4ccccc4)nn(-c4ccccc4)c3Oc3ncn4nc(CC#N)nc4c32)cc1OC (configuration not stated) | > 100 | > 100 | > 100 | > 100 µM and 68.1 µM | > 76.3 | > 100 | 73.7 µM and 33.7 µM | 41.7 µM and > 47 µM | > 100 µM and 17.9 µM | > 100 µM and 15.7 µM | 78.2 µM and > 22.1 µM | > 100 |  | > 100 µM and 13.7 µM |  | 40.7 µM and 9.55 µM | 23.6 µM and 4.62 µM | 16.8 µM and 5.81 µM |  | 40.2 µM and 4.62 µM
CCCN1C(=O)CNC(=O)c2[nH]cnc21 | > 100 | > 100 | > 100 | > 100 µM | > 100 | > 100 | > 100 µM | > 100 µM | > 100 µM | > 100 µM |  |  |  |  |  |  |  |  |  | 
COc1cc(N2CCC(N3CCN(C)CC3)CC2)ccc1Nc1ncc(Cl)c(Nc2ccccc2S(=O)(=O)C(C)C)n1 | 3.48 | 0.469 | 10.3 | 2.03 µM | 11.5 | 1.64 | 12.2 µM | 9.2 µM | 4.02 µM | 2.03 µM | 0.352 µM | 0.114 | 1.8 | 0.402 µM | 0.489 | 0.358 µM | 2.07 µM | 1.39 µM | 1.83 | 0.525 µM
COc1cc(C)c(NC(=O)CN(C)C)cc1Nc1nc(Nc2cccc(F)c2C(N)=O)c2cc[nH]c2n1 | 1.92 | 0.552 | 11.1 | 4.82 µM | 12.5 | 4.31 | 16 µM | 5.81 µM | 6.29 µM | 3.69 µM | 0.524 µM | 0.014 | 2.13 | 0.945 µM | 0.937 | 0.686 µM | 4.02 µM | 1.91 µM | 2.67 | 0.623 µM
CCN1CCN(c2ccc(Nc3ncc4ccc5ncn(C(C)C)c5c4n3)nc2)CC1 | 0.719 | 0.342 | 0.794 | 10.4 µM | 0.563 | 0.55 | 15.5 µM | 1.6 µM | 0.847 µM | 0.809 µM | 0.123 µM | 0.0852 | 0.224 | 0.0838 µM | 0.131 | 0.0312 µM | 0.187 µM | 0.0347 µM | 0.271 | 0.208 µM
Cn1c(=O)c2[nH]c(CCCCc3nc4c([nH]3)c(=O)n(C)c(=S)n4C)nc2n(C)c1=S | > 100 | > 100 | > 100 | > 100 µM | > 100 | > 100 | > 100 µM | > 100 µM | > 100 µM | > 100 µM |  |  |  |  |  |  |  |  |  | 
COC(=O)C1=C(C)N(NC(N)=O)C(C)(O)C12CCOC2=O (configuration not stated) | > 100 | > 100 | > 100 | > 100 µM | > 100 | > 100 | > 100 µM | > 100 µM | > 100 µM | > 100 µM |  |  |  |  |  |  |  |  |  | 
Nc1ncnc2c1ncn2C1OC(COC2C(CO)OC(OC(C(=O)O)C(O)C(OP(=O)(O)O)C(O)C(=O)O)C(O)C2O)C(O)C1O (configuration not stated) | > 100 | > 100 | > 100 | > 100 µM | > 100 | > 100 | > 100 µM | > 100 µM | > 100 µM | > 100 µM |  |  |  |  |  |  |  |  |  | 
c1ccc2c3c(ccc2c1)-c1c(ccc2c(NCCCCN4CCCCC4)cccc12)C3 | 3 | 6.77 | 3.35 | 2.79 µM | 28 | 2.98 | 63.5 µM | 8.03 µM | 35.3 µM | 9.22 µM | 1.51 µM | 2.33 | 1.78 | 1.47 µM | 10.7 | 1.63 µM | 22.2 µM | 2.09 µM | 10 | 3.42 µM
Cc1cc2nc(C(Cl)Cl)nc(-c3ccccc3)n2n1 | 4.86 | 4.56 | 15.9 | 6.45 µM | 20.3 | 24 | 28 µM | 35.1 µM | 21.5 µM | > 100 µM | 1.78 µM | 1.77 | 3.48 | 2.48 µM | 3.72 | 3.45 µM | 4.04 µM | 5.24 µM | 3.34 | 4.27 µM
